Counter-ions that a name gives are not always drawn.
Experiments:
adult rabbit myocytes = assay: Contraction and calcium transients in isolated rabbit cardiomyocytes; assay type: cell-based; settings: for decay kinetics / relaxation times / peak-Ca2+ transient / percent sarcomere shortening: agent alone: Cil 1 μM, Compound 1 1 μM, Iso non-saturating dose
Description: To test whether PDE1 inhibition directly impacts cardiomyocyte contraction and calcium transients, studies are carried out on normal adult rabbit myocytes. […] As PDE1 requires sufficient cAMP and Ca^2+ to be impactful, a dose response was performed to the adenylate cyclase activator, forskolin (FSK) to determine the lowest dose producing a modest but significant inotropic effect (1 μM).
Rabbit myocytes were isolated to determine the effect of PDE1 inhibition on cardiomyocyte contraction and whole cell Ca2+ transients, and to compare the results to those with a PDE3 inhibitor, cilostamide (Cil, 1 μM).
An alternative approach to augmenting cAMP independent of […] is to directly stimulate adenylate cyclase using forskolin (Fsk). A dose response study was carried out to identify a non-saturating Fsk dose that still generated significant inotropic effects (1 μM).

myocyte cAMP = assay: Whole cell cAMP in isolated rabbit myocytes; assay type: cell-based
Source text: This is consistent with prior studies showing locally generated cAMP from β-AR and its modulation by PDE3 occur in local subcellular domains that are not easily detected in whole cell lysates32.

[1] = system: rabbit heart and vasculature; assay: Anesthetized rabbit pressure-volume hemodynamics with or without esmolol or MRS-1754; assay type: in vivo; settings: for effect of blocker on Compound 1 responses: atrially paced, fixed heart rate; for impact of inhibitor pre-treatment alone on cardiovascular hemodynamics: rabbit, in vivo
Source text: Cyclic AMP is generated largely by transmembrane adenylyl cyclases activated via stimulatory G protein (Gs), with β-adrenergic, adenosine (primarily A2B), glucagon, prostanoids, histamine, and serotonin all coupling to Gs in cardiomyocytes. The present studies focus on beta-adrenergic and adenosine receptors, and for the latter, concentrated on the A2B receptor, which has been reported to directly stimulate cAMP-dependent contractility. […] Relaxation changes are also modest with LV preload (end-diastolic and volume) unaltered; however, the combined vasodilator-inotropic response doubled ventricular/arterial coupling ratio, Ees/Ea.
New Zealand White rabbits (male, 2-3 kg) are sedated with 35 mg/kg ketamine and 5 mg/kg xylazine, intubated and ventilated (Model 683, Harvard Apparatus, Holliston, Mass.), with anesthesia maintained with isoflurane inhalation (1-2%). A pressure-volume catheter (SPR-894, Millar, Inc., Houston, Tex.) is inserted via the common carotid artery and advanced to the LV apex, and a 2-Fr pacing catheter is positioned in the right atrium via the right jugular vein to provide atrial pacing. […] The parallel conductance is determined by the hypertonic saline injection method. Rabbits are infused with 6% hetastarch in saline during the procedure to stabilize arterial pressure.

[2] = system: normal and failing canine hearts; assay: Conscious dog pressure-volume hemodynamic analysis, normal and failing hearts; assay type: in vivo; settings: dobutamine 10 μg/kg/min alone
Source text: Dogs are studied in the conscious state before and after inducing dilated cardiomyopathy by tachypacing for two weeks at 200 bpm. […]
Load insensitive indexes of contractility (dP/dtmax/IP and PRSW) increased.

plasma cAMP and cGMP = assay: Plasma cAMP and cGMP by ELISA in dogs; assay type: in vivo, dog
Description: Blood plasma is obtained from these animals, and cAMP and cGMP are assayed by ELISA.

[3] = agent added to non-saturating Iso
[4] = agent alone: Iso 50 nM, Compound 1 up to 1 mM, IBMX 100 μM

CN(C(=O)CCCOc1ccc2[nH]c(=O)ccc2c1)C1CCCCC1 [Cil, cilostamide] was tested, and the “Ca2+ transient decay rate” value (adult rabbit myocytes; agent added to Fsk 1 μM) was “faster decay of the Ca2+ transient”, the “peak Ca2+ transient” value (adult rabbit myocytes; agent added to Fsk 1 μM) was “increase” and the sarcomere shortening (adult rabbit myocytes; agent added to Fsk 1 μM) was “increase in sarcomere shortening”. For the same compound, the “peak-Ca2+” value (adult rabbit myocytes; [3]) was “remained elevated over baseline”, the sarcomere shortening (adult rabbit myocytes; [3]) was “further increased sarcomere shortening” and the “decay kinetics / relaxation times” value (adult rabbit myocytes) was “accelerated”. For the same compound, the “peak-Ca2+ transient” value (adult rabbit myocytes) was “rose”, the percent sarcomere shortening (adult rabbit myocytes) was “rose” and the “whole cell cAMP” value (myocyte cAMP; agent added to Fsk) was “unaltered”. For the same compound, the “whole cell cAMP” value (myocyte cAMP; agent alone) was “did not measurably increase whole cell cAMP” and the “whole cell cAMP” value (myocyte cAMP; agent combined with Iso) was “did not measurably increase whole cell cAMP”.
For CC(C)Cn1c(=O)n(C)c(=O)c2[nH]cnc21 [IBMX], the “contraction/calcium decay time or rates” value (adult rabbit myocytes; [4]) was “increased”, the “peak Ca2+ transient” value (adult rabbit myocytes; [4]) was “did not alter peak calcium transients” and the sarcomere shortening (adult rabbit myocytes; [4]) was “increased shortening”.
In the case of CC(C)NCC(O)c1ccc(O)c(O)c1 (centres unmarked) [isoproterenol], the “decay kinetics / relaxation times” value (adult rabbit myocytes) is reported as “quickened relaxation times”, the “peak-Ca2+ transient” value (adult rabbit myocytes) is reported as “increased” and the percent sarcomere shortening (adult rabbit myocytes) is reported as “increased”. For the same compound, the “contraction/calcium decay time or rates” value (adult rabbit myocytes; [4]) was “accelerates the decay time of both”, the “peak Ca2+ transient” value (adult rabbit myocytes; [4]) was “increases” and the sarcomere shortening (adult rabbit myocytes; [4]) was “increases”. The “whole cell cAMP” value (myocyte cAMP; agent alone) was “did not measurably increase whole cell cAMP”.
In the case of CCCn1c(=O)c2[nH]c(-c3ccc(OCC(=O)Nc4ccc(C#N)cc4)cc3)nc2n(CCC)c1=O [MRS-1754, reference compound], the “effect of blocker on cardiovascular responses to Compound 1 (heart rate, contractility, vasodilation)” value ([1]; MRS-1754 1 mg/kg iv before Compound 1 0.1 mg/kg) is reported as “eliminated all of the cardiovascular responses to Compound 1”, the “effect of blocker on Compound 1 responses” value [1] is reported as “fully blocked” and the “impact of inhibitor pre-treatment alone on cardiovascular hemodynamics” value [1] is reported as “Neither inhibitor pre-treatment alone has a significant impact”.
For CC(CCc1ccc(O)cc1)NCCc1ccc(O)c(O)c1 (centres unmarked) [Dobutamine, dobutamine, reference compound], the “PV loop area (stroke work)” value [2] was “increased PV loop area”, the “plasma cAMP” value (plasma cAMP and cGMP; HF dogs, single drugs) was “not significantly changed” and the “plasma cGMP” value (plasma cAMP and cGMP; all conditions, normal and HF models) was “remains unchanged”. For the same compound, the “plasma cAMP” value (plasma cAMP and cGMP; normal dogs) was “augmented plasma cAMP”.
In the case of COC(=O)CCc1ccc(OCC(O)CNC(C)C)cc1 (centres unmarked) [esmolol, esmolol HCl, reference compound], the “effect of blocker on Compound 1 responses” value [1] is reported as “unaltered”, the “block of cardiac responses to 10 μg/kg/min dobutamine” value ([1]; esmolol 0.5 mg/kg bolus then 0.05 mg/kg/min) is reported as “effectively blocked” and the “impact of inhibitor pre-treatment alone on cardiovascular hemodynamics” value [1] is reported as “Neither inhibitor pre-treatment alone has a significant impact”.
C=C[C@@]1(C)CC(=O)[C@]2(O)[C@@]3(C)[C@@H](O)CCC(C)(C)[C@@H]3[C@H](O)[C@H](OC(C)=O)[C@@]2(C)O1 [forskolin] was tested, and the “lowest (non-saturating) dose producing a modest but significant inotropic effect” value (adult rabbit myocytes; dose response) was 1 µM.

Reference: patent US11839614B2, “Methods for treating or mitigating cardiotoxicity characterized by inhibition of adenosine A2 signaling and/or adenosine A2 receptor expression” (INTRA-CELLULAR THERAPIES, INC., priority 2018, dated 2023)
